Measured values taken from US20250311727A1, “SUBSTITUTED 2-AMINOAZINES AND SALTS THEREOF, AND USE THEREOF AS HERBICIDAL ACTIVE SUBSTANCES” (BAYER AKTIENGESELLSCHAFT, priority 2022, published 2025).

Columns and labels:
Format in all cases: in vivo
Abutilon theophrasti [1] = assay: Post-emergence herbicidal efficacy at 320 g/ha, ABUTH; settings: rated visually after about 3 weeks vs untreated controls, 100% = plants have died
Procedure, shortened: (§1)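 One-leaf-stage weeds, sandy loam pots, greenhouse; foliar spray of WP/EC, 0.5% additive, 600 L/ha water; visual rating at ~3 wk, 0–100% vs untreated.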

Amaranthus retroflexus [2] = assay: Post-emergence herbicidal efficacy at 320 g/ha, AMARE; settings: rated visually after about 3 weeks vs untreated controls, 100% = plants have died
Procedure, shortened: as §1

Digitaria sanguinalis [3] = assay: Post-emergence herbicidal efficacy at 320 g/ha, DIGSA; settings: rated visually after about 3 weeks vs untreated controls, 100% = plants have died
Procedure, shortened: as §1

Echinochloa crus-galli [4] = assay: Post-emergence herbicidal efficacy at 320 g/ha, ECHCG; settings: rated visually after about 3 weeks vs untreated controls, 100% = plants have died
Procedure, shortened: as §1

Kochia scoparia [5] = assay: Post-emergence herbicidal efficacy at 320 g/ha, KCHSC; settings: rated visually after about 3 weeks vs untreated controls, 100% = plants have died
Procedure, shortened: as §1

Poa annua [6] = assay: Post-emergence herbicidal efficacy at 320 g/ha, POAAN; settings: rated visually after about 3 weeks vs untreated controls, 100% = plants have died
Procedure, shortened: as §1

Setaria viridis [7] = assay: Post-emergence herbicidal efficacy at 320 g/ha, SETVI; settings: rated visually after about 3 weeks vs untreated controls, 100% = plants have died
Source text: (§2) Unwanted plants/weeds: • ABUTH: Abutilon theophrasti • ALOMY: Alopecurus myosuroides • AMARE: Amaranthus retroflexus • DIGSA: Digitaria sanguinalis • ECHCG: Echinochloa crus-galli • KCHSC: Kochia scoparia • LOLRI: Lolium rigidum • MATIN: Matricaria inodora • POAAN: Poa annua • POLCO: Polygonum convolvulus • SETVI: Setaria viridis • STEME: Stellaria media • VERPE: Veronica persica • VIOTR: Viola tricolor A. Post-Emergence Herbicidal Efficacy at 320 g/ha
Seeds of mono- and dicotyledonous weed plants were placed in plastic pots in sandy loam soil (doubly sown with in each case one species of mono- or dicotyledonous weed plants per pot), covered with soil and cultivated in a greenhouse under controlled growth conditions. 2 to 3 weeks after sowing, the test plants were treated at the one-leaf stage. The compounds of the invention, formulated in the form of wettable powders (WP) or as emulsion concentrates (EC), were applied to the green parts of the plants as aqueous suspension or emulsion with addition of 0.5% additive at a water application rate equivalent to 600 litres per hectare. After the test plants had been kept in the greenhouse under optimum growth conditions for about 3 weeks, the activity of the preparations was rated visually in comparison to untreated controls.
(§3) For example, 100% activity=the plants have died, 0% activity=like control plants.
Tables A1 to A10 below show the effects of selected compounds of the general formula (I) according to Table 1 on various harmful plants and at an application rate corresponding to 320 g/ha, which were obtained by the trial procedure specified above.

Stellaria media [8] = assay: Post-emergence herbicidal efficacy at 320 g/ha, STEME; settings: rated visually after about 3 weeks vs untreated controls, 100% = plants have died
Procedure, shortened: as §1

Veronica persica [9] = assay: Post-emergence herbicidal efficacy at 320 g/ha, VERPE; settings: rated visually after about 3 weeks vs untreated controls, 100% = plants have died
Procedure, shortened: as §1

Amaranthus retroflexus [10] = assay: Post-emergence herbicidal efficacy at 80 g/ha, AMARE; settings: rated visually after about 3 weeks vs untreated controls, 100% = plants have died
Procedure, shortened: (§4)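 Greenhouse post-emergence spray, one-leaf stage (2–3 wk after sowing, sandy loam). Cpd as WP/EC, aqueous + 0.5% additive, 600 l/ha water. Visual rating ~3 wk post-treatment vs untreated; 0% = as control, 100% = plants dead.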

Kochia scoparia [11] = assay: Post-emergence herbicidal efficacy at 80 g/ha, KCHSC; settings: rated visually after about 3 weeks vs untreated controls, 100% = plants have died
Procedure, shortened: as §4

Veronica persica [12] = assay: Post-emergence herbicidal efficacy at 80 g/ha, VERPE; settings: rated visually after about 3 weeks vs untreated controls, 100% = plants have died
Procedure, shortened: as §4

Viola tricolor [13] = assay: Post-emergence herbicidal efficacy at 80 g/ha, VIOTR; settings: rated visually after about 3 weeks vs untreated controls, 100% = plants have died
Source text: as §2
Seeds of monocotyledonous and dicotyledonous weeds and crop plants were placed in sandy loam in plastic or organic planting pots, covered with soil and cultivated in a greenhouse under controlled growth conditions. 2 to 3 weeks after sowing, the test plants were treated at the one-leaf stage. The compounds of the invention, formulated in the form of wettable powders (WP) or as emulsion concentrates (EC), were then sprayed onto the green parts of the plants as aqueous suspension or emulsion with addition of 0.5% additive at a water application rate of 600 l/ha (converted). After the test plants had been kept in the greenhouse under optimum growth conditions for about 3 weeks, the activity of the preparations was rated visually in comparison to untreated controls. For example, 100% activity=the plants have died, 0% activity=like control plants.
Tables B1 to B11 below show the effects of selected compounds of the general formula (I) according to Table 1 on various harmful plants and an application rate corresponding to 80 g/ha, which were obtained by the experimental procedure mentioned above.

Abutilon theophrasti [14] = assay: Pre-emergence herbicide efficacy at 320 g/ha, ABUTH; settings: scored visually after about 3 weeks vs untreated controls, 100% = plants have died
Procedure, shortened: (§5)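 Sandy loam pots, seeds covered with soil; WP/EC formulation applied to soil surface, 0.5% additive, 600 L/ha water. Greenhouse ~3 weeks. Visual % damage vs untreated (0% = like control, 100% = dead).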

Amaranthus retroflexus [15] = assay: Pre-emergence herbicide efficacy at 320 g/ha, AMARE; settings: scored visually after about 3 weeks vs untreated controls, 100% = plants have died
Procedure, shortened: as §5

Digitaria sanguinalis [16] = assay: Pre-emergence herbicide efficacy at 320 g/ha, DIGSA; settings: scored visually after about 3 weeks vs untreated controls, 100% = plants have died
Procedure, shortened: as §5

Echinochloa crus-galli [17] = assay: Pre-emergence herbicide efficacy at 320 g/ha, ECHCG; settings: scored visually after about 3 weeks vs untreated controls, 100% = plants have died
Procedure, shortened: as §5

Kochia scoparia [18] = assay: Pre-emergence herbicide efficacy at 320 g/ha, KCHSC; settings: scored visually after about 3 weeks vs untreated controls, 100% = plants have died
Procedure, shortened: as §5

Lolium rigidum = assay: Pre-emergence herbicide efficacy at 320 g/ha, LOLRI; settings: scored visually after about 3 weeks vs untreated controls, 100% = plants have died
Source text: as §2
(§6) Seeds of mono- and dicotyledonous weed plants were placed in plastic pots in sandy loam soil (doubly sown with one species each of mono- or dicotyledonous weed plants per pot) and covered with soil. The compounds of the invention, formulated in the form of wettable powders (WP) or as emulsion concentrates (EC), were then applied to the surface of the covering soil as aqueous suspension or emulsion with addition of 0.5% additive at a water application rate of 600 litres per hectare (converted). After the treatment, the pots were placed in a greenhouse and kept under good growth conditions for the test plants. After about 3 weeks, the efficacy of the preparations was scored visually in comparison with untreated controls as percentages.
as §3
(§7) Tables C1 to C12 below show the effects of selected compounds of the general formula (I) according to Table 1 on various harmful plants and at an application rate corresponding to 320 g/ha, which were obtained by the trial procedure specified above.

Matricaria inodora = assay: Pre-emergence herbicide efficacy at 320 g/ha, MATIN; settings: scored visually after about 3 weeks vs untreated controls, 100% = plants have died
Source text: as §2, §6, §3, §7

Poa annua [19] = assay: Pre-emergence herbicide efficacy at 320 g/ha, POAAN; settings: scored visually after about 3 weeks vs untreated controls, 100% = plants have died
Procedure, shortened: as §5

Setaria viridis [20] = assay: Pre-emergence herbicide efficacy at 320 g/ha, SETVI; settings: scored visually after about 3 weeks vs untreated controls, 100% = plants have died
Procedure, shortened: as §5

Stellaria media [21] = assay: Pre-emergence herbicide efficacy at 320 g/ha, STEME; settings: scored visually after about 3 weeks vs untreated controls, 100% = plants have died
Procedure, shortened: as §5

Veronica persica [22] = assay: Pre-emergence herbicide efficacy at 320 g/ha, VERPE; settings: scored visually after about 3 weeks vs untreated controls, 100% = plants have died
Procedure, shortened: as §5

Amaranthus retroflexus [23] = assay: Pre-emergence herbicide efficacy at 80 g/ha, AMARE; settings: scored visually after about 3 weeks vs untreated controls, 100% = plants have died
Procedure, shortened: (§8)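 Visual scoring after about 3 weeks in the greenhouse, expressed as percent activity against untreated controls, where 100% means dead plants and 0% means no difference. Treatment was applied pre-emergence to the covering soil over sown seeds, as WP or EC in water with 0.5% additive, 600 l/ha.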

Digitaria sanguinalis [24] = assay: Pre-emergence herbicide efficacy at 80 g/ha, DIGSA; settings: scored visually after about 3 weeks vs untreated controls, 100% = plants have died
Source text: as §2
(§9) Seeds of monocotyledonous and dicotyledonous weed plants and crop plants were placed in plastic or organic planting pots and covered with soil. The compounds of the invention, formulated in the form of wettable powders (WP) or as emulsion concentrates (EC), were then applied to the surface of the covering soil as aqueous suspension or emulsion with addition of 0.5% additive at a water application rate equivalent to 600 l/ha. After the treatment, the pots were placed in a greenhouse and kept under good growth conditions for the test plants. After about 3 weeks, the efficacy of the preparations was scored visually in comparison with untreated controls as percentages. For example, 100% activity=the plants have died, 0% activity=like control plants.
(§10) Tables D1 to D12 below show the effects of selected compounds of the general formula (I) according to Table 1 on various harmful plants and an application rate corresponding to 80 g/ha, which were obtained by the experimental procedure mentioned above.

Kochia scoparia [25] = assay: Pre-emergence herbicide efficacy at 80 g/ha, KCHSC; settings: scored visually after about 3 weeks vs untreated controls, 100% = plants have died
Source text: as §2, §9, §10

Polygonum convolvulus = assay: Pre-emergence herbicide efficacy at 80 g/ha, POLCO; settings: scored visually after about 3 weeks vs untreated controls, 100% = plants have died
Source text: as §2, §9, §10

Setaria viridis [26] = assay: Pre-emergence herbicide efficacy at 80 g/ha, SETVI
Procedure, shortened: as §8

Veronica persica [27] = assay: Pre-emergence herbicide efficacy at 80 g/ha, VERPE
Source text: as §2, §9, §10

Viola tricolor [28] = assay: Pre-emergence herbicide efficacy at 80 g/ha, VIOTR
Procedure, shortened: as §8

N#Cc1cccc(Nc2ncc(Cl)cn2)c1-n1cc(C(F)(F)F)cn1 [Example 1-38, 3-(5-Chloropyrimidin-2-ylamino)-2-(4-(trifluoromethyl)-1H-pyrazol-1-yl)benzonitrile]
Post-emergence efficacy at 320 g/ha against ABUTH in % (Abutilon theophrasti [1]): 90% | Post-emergence efficacy at 320 g/ha against AMARE in % (Amaranthus retroflexus [2]): 100% | Post-emergence efficacy at 320 g/ha against DIGSA in % (Digitaria sanguinalis [3]): 90% | Post-emergence efficacy at 320 g/ha against ECHCG in % (Echinochloa crus-galli [4]): 100% | Post-emergence efficacy at 320 g/ha against KCHSC in % (Kochia scoparia [5]): 100% | Post-emergence efficacy at 320 g/ha against POAAN in % (Poa annua [6]): 90% | Post-emergence efficacy at 320 g/ha against SETVI in % (Setaria viridis [7]): 90% | Post-emergence efficacy at 320 g/ha against STEME in % (Stellaria media [8]): 100% | Post-emergence efficacy at 320 g/ha against VERPE in % (Veronica persica [9]): 100% | Post-emergence efficacy at 80 g/ha against AMARE in % (Amaranthus retroflexus [10]): 100% | Post-emergence efficacy at 80 g/ha against KCHSC in % (Kochia scoparia [11]): 100% | Post-emergence efficacy at 80 g/ha against VERPE in % (Veronica persica [12]): 90% | Post-emergence efficacy at 80 g/ha against VIOTR in % (Viola tricolor [13]): 100% | Pre-emergence efficacy at 320 g/ha against ABUTH in % (Abutilon theophrasti [14]): 90% | Pre-emergence efficacy at 320 g/ha against AMARE in % (Amaranthus retroflexus [15]): 100% | Pre-emergence efficacy at 320 g/ha against DIGSA in % (Digitaria sanguinalis [16]): 100% | Pre-emergence efficacy at 320 g/ha against ECHCG in % (Echinochloa crus-galli [17]): 90% | Pre-emergence efficacy at 320 g/ha against KCHSC in % (Kochia scoparia [18]): 90% | Pre-emergence efficacy at 320 g/ha against LOLRI in % (Lolium rigidum): 90% | Pre-emergence efficacy at 320 g/ha against MATIN in % (Matricaria inodora): 100% | Pre-emergence efficacy at 320 g/ha against POAAN in % (Poa annua [19]): 100% | Pre-emergence efficacy at 320 g/ha against SETVI in % (Setaria viridis [20]): 100% | Pre-emergence efficacy at 320 g/ha against STEME in % (Stellaria media [21]): 100% | Pre-emergence efficacy at 320 g/ha against VERPE in % (Veronica persica [22]): 100% | Pre-emergence efficacy at 80 g/ha against AMARE in % (Amaranthus retroflexus [23]): 100% | Pre-emergence efficacy at 80 g/ha against DIGSA in % (Digitaria sanguinalis [24]): 100% | Pre-emergence efficacy at 80 g/ha against KCHSC in % (Kochia scoparia [25]): 100% | Pre-emergence efficacy at 80 g/ha against POLCO in % (Polygonum convolvulus): 100% | Pre-emergence efficacy against SETVI (Setaria viridis [26]): 100% | Pre-emergence efficacy against VERPE (Veronica persica [27]): 90% | Pre-emergence efficacy against VIOTR (Viola tricolor [28]): 100%
